The results in this text go back to patent US5004756A, “Anti-cancer activity potentiator” (priority 1988, dated 1991).

As a reminder, the IC50 is the midpoint of a concentration-inhibition curve.

≈ marks a conversion by molar mass, not a printed value.

Assay [1] concerns clinically isolated human cancer cells (lung adenocarcinoma, lung squamous cell carcinoma, osteosarcoma, ovarian carcinoma). Put plainly: Anti-tumor activity on clinically isolated human cancer cells, morphological changes (A-I Part 2). Type of assay: cell-based.
Method: Lung adenocarcinoma, lung squamous cell carcinoma, osteosarcoma and ovarian carcinoma were selected as clinically isolated human cancer cells, and the anti-tumor activities of various drugs were examined. Specifically, various tumor tissues were individually cut to thin pieces by a razor, and by washing in saline by using a 1 mm mesh, the connective tissues were removed. The resulting solution was centrifuged at 1000 rpm for 1 minute to remove necrotizing substances. Washing with saline gave tumor cells.
They were incubated at 37° for 4 to 8 hours. Thereafter, pumping was carried out to disperse the tissue pieces. Then, centrifugation at 1000 rpm for 5 minutes, cell coating and Giemsa staining were performed. The anti-tumor activity of each drug was examined on the basis of observation of the morphological changes of the tumor cells under a microscope.
The experiment was conducted on two examples of each tumor cells (total 8 examples).
Assay [2] concerns V79/S. Put plainly: Anti-cancer activity potentiating action, colony formation, V79/S parent cells (A-III). It counts as cell-based, Chinese hamster. The note with it: V79/S; for IC50: Cricetulus griseus. Here is the method:
(§1) The anti-cancer activity potentiating action of the malate of formula (I) was examined using Chinese hamster cells (sensitive cell line V79/S and ADM-resistant cell line V79/ADM), human hepatoma cells (sensitive cell line PLC/S and colchicin-resistant cell line PLC/Col) and mouse leukemia cells (sensitive cell line L5178Y/S) and aclarubicin-resistant cell line L5178Y/ACR).
(§2) Of these tumor cells, the sensitive cells (400 cells) and the resistant cells (600 cells) were each incubated in 10 ml of Eagle's MEM medium containing 10% bovine serum for 24 hours, and then each of the test drugs indicated in Table 6 was added. Thereafter, the incubation was carried out for 9 days. The concentration (IC50 : micrograms/ml) of the test drug required to inhibit 50% of the colony formation (proliferation) of the tumor cells was calculated.
(§3) (A) Chinese hamster V79 cells
(§4) As anti-cancer agents, there were used adriamycin (ADM), aclarubicin (ACR), actinomycin D (ACD), 5-fluorouracil (5-FU), cytarabin (Ara-C), cisplatin (CDDP), methotrexate (MTX), mitomycin C (MMC), nimustine (ACNU), mitoxantrone, etoposide ([…]), vincristine (VCR), bleomycin (BLM) and peplomycin (PEP). For the sensitive cells, the anti-cancer agents were used in combination with 10 micrograms/ml of the malate of formula (I), and for the resistant cells, the anti-cancer agents were used in combination with the malate of formula (I) 3 micrograms/ml, 5 micrograms/ml, and 10 micrograms/ ml.

The subject of assay [3] is V79/ADM. As to the kind of experiment: Anti-cancer activity potentiating action, colony formation, V79/ADM resistant cells (A-III). It counts as cell-based, Chinese hamster. As to conditions: V79/ADM; for IC50: Cricetulus griseus. Here is the method:
as §1, §2, §3, §4

Assay [4] deals with V79/S. As to the kind of experiment: Colony formation (proliferation) inhibition, sensitive Chinese hamster cells (A-I Part 1). Type of assay: cell-based. As to conditions: Cricetulus griseus, 216 h. Here is the method: (§5) Sensitive cell line V79/S and ADM-resistant cell line V79/ADM of the Chinese hamster were used, and sensitive cell line PLC/S and cholchicin-resistant cell line PLC/Col, as human hepatoma cells.
(§6) The sensitive cell lines (400 cells) or the resistant cell lines (600 cells) were each incubated for 24 hours in 10 ml of Eagle's MEM medium containing 10% bovine serum. Each of the drugs indicated in Table 1 below was dissolved in ethanol, and 50 microliters of the resulting solution was added to the medium. The incubation was further carried out for 9 days. The concentration of the drug which inhibits 50% of the colony formation (proliferation) of the tumor cells was calculated.
(§7) V79/S and V79/ADM were tested by using all of the drugs described above, but PLC/S and PLC/Col were tested by using only the malate of formula (I), adriamycin and peplomycin.
(§8) The concentrations (micrograms/ml) required to inhibit 50% of the proliferation of the tumor cells, expressed by IC50, are shown in Table 1.

In assay [5] the test system is V79/ADM. As to the kind of experiment: Colony formation (proliferation) inhibition, ADM-resistant Chinese hamster cells (A-I Part 1). It counts as cell-based. The note with it: Cricetulus griseus, 216 h. Here is the method:
as §5, §6, §7, §8

Setting [6] is: alone, Table 6, read-out: IC50, anti-cancer agent alone.
[7] abbreviates: with compound (I) 10 μg/ml, read-out: IC50 in combination with compound (I).
[8] abbreviates: with compound (I) 5 μg/ml, read-out: IC50 in combination with compound (I).
[9] abbreviates: with compound (I) 3 μg/ml, read-out: IC50 in combination with compound (I).

For the compound `O=c1[nH]cc(F)c(=O)[nH]1` [Example 5-FU, 5-fluorouracil], the “Efficacy ratio (rated significant by Fisher's test)” value in assay [1] (10 μg/ml) is 1/8. In addition, the IC50 in assay [2] (setting [6]) is 9.7 µM; in assay [2] (setting [7]), 2.1 µM; in assay [3] (setting [6]), 7.2 µM; in assay [3] (setting [8]) it was 0.62 µM. In addition, the results for the Potentiation activity in assay [2] (with compound (I) 10 μg/ml) and in assay [3] (with compound (I) 5 μg/ml) were 4.6 times and 11.6 times, respectively.

Regarding `N[C@@H](Cc1ccc(N(CCCl)CCCl)cc1)C(=O)O` [MPL, melphalan], the “Efficacy ratio (rated significant by Fisher's test)” value in assay [1] (0.5 μg/ml) was 1/8.

As for `CN(Cc1cnc2nc(N)nc(N)c2n1)c1ccc(C(=O)N[C@@H](CCC(=O)O)C(=O)O)cc1` [MTX, methotrexate], the IC50 is 0.017 µg/mL (≈ 0.0374 µM) in assay [4]; 0.014 µg/mL in assay [2] (setting [6]); 0.017 µg/mL in assay [2] (setting [7]); 0.0078 µg/mL (≈ 0.0172 µM) in assay [5]; 0.0078 µg/mL in assay [3] (setting [6]); below 0.0025 µg/mL in assay [3] (setting [8]). Besides, the “Efficacy ratio (rated significant by Fisher's test)” value in assay [1] (3.0 μg/ml) is reported as 1/8. The values for the Potentiation activity in assay [2] (with compound (I) 10 μg/ml) and in assay [3] (with compound (I) 5 μg/ml) were 0.8 times and above 3.12 times, respectively.

On to `O=C1c2c(O)ccc(O)c2C(=O)c2c(NCCNCCO)ccc(NCCNCCO)c21` [Mitoxantrone, mitoxantrone], for which the half-inhibitory concentration (IC50) in assay [4] (V79/S, 9 days, Table 1, read-out: IC50) is 0.019 µg/mL (≈ 0.0427 µM); in assay [2] (setting [6]) it was 0.019 µg/mL; in assay [2] (setting [7]), 0.0081 µg/mL; in assay [5] (V79/ADM, 9 days, Table 1, read-out: IC50), 0.36 µg/mL (≈ 0.81 µM); in assay [3] (setting [6]) it was 0.36 µg/mL; in assay [3] (setting [9]), 0.074 µg/mL. Moreover, the Potentiation activity in assay [2] (with compound (I) 10 μg/ml) came out at 2.3 times; in assay [3] (with compound (I) 3 μg/ml), 4.9 times.

Turning to `CC[C@]1(O)C[C@H]2CN(CCc3c([nH]c4ccccc34)[C@@](C(=O)OC)(c3cc4c(cc3OC)N(C=O)[C@H]3[C@@](O)(C(=O)OC)[C@H](OC(C)=O)[C@]5(CC)C=CCN6CC[C@]43[C@@H]65)C2)C1` [VCR, vincristine], the “Efficacy ratio (rated significant by Fisher's test)” value in assay [1] (0.1 μg/ml) is 2/8. Moreover, the 50% inhibitory concentration (IC50) amounted to 0.0271 µg/mL in assay [2] (setting [6]), 0.00325 µg/mL in assay [2] (setting [7]), 0.73 µg/mL in assay [3] (setting [6]) and 0.0351 µg/mL in assay [3] (setting [9]). Also, the values for the Potentiation activity in assay [2] (with compound (I) 10 μg/ml) and in assay [3] (with compound (I) 3 μg/ml) were 8.3 times and 20.8 times, respectively.

For the compound `CC[C@]1(O)C[C@@H]2CN(CCc3c([nH]c4ccccc34)[C@@](C(=O)OC)(c3cc4c(cc3OC)N(C)[C@H]3[C@@](O)(C(N)=O)[C@H](O)[C@]5(CC)C=CCN6CC[C@]43[C@@H]65)C2)C1` [VDS, vindesine], in assay [1] (0.5 μg/ml), the “Efficacy ratio (rated significant by Fisher's test)” value is recorded as 0/8.

Turning to `CC[C@]1(O)C[C@@H]2CN(CCc3c([nH]c4ccccc34)[C@@](C(=O)OC)(c3cc4c(cc3OC)N(C)[C@H]3[C@@](O)(C(=O)OC)[C@H](OC(C)=O)[C@]5(CC)C=CCN6CC[C@]43[C@@H]65)C2)C1` [VLB, vinblastine], the “Efficacy ratio (rated significant by Fisher's test)” value in assay [1] (0.1 μg/ml) is 3/8.

Turning to bleomycin [BLM], the “Efficacy ratio (rated significant by Fisher's test)” value in assay [1] (1.0 μg/ml) is given as 2/8. The “IC50, anti-cancer agent alone” value amounted to 2.1 µg/mL in assay [2] (alone, Table 6) and 0.56 µg/mL in assay [3] (alone, Table 6). Also, the “IC50 in combination with compound (I)” value in assay [2] (with compound (I) 10 μg/ml) turned out to be 0.01 µg/mL; in assay [3] (with compound (I) 3 μg/ml), 0.0385 µg/mL. The Potentiation activity came out at 202 times in assay [2] (with compound (I) 10 μg/ml) and 14.5 times in assay [3] (with compound (I) 3 μg/ml).
